Reference: patent US20030153081A1, “Viral core protein-cationic lipid-nucleic acid-delivery complexes” (priority 1999, published 2003)

Columns and labels:
ND7 cells [1] = experiment: X-gal staining, cationic lipid variations in ND7 cells; format: cell-based, rat/mouse; details: ND7, Liposome:DNA 3:1 w/w
Method: We determined whether LMD complexes could be bettered by incorporating poly cationic cholesterol lipids (WO 97/45442). CDAN (B198), ACHx (CJE52) and CTAP (B232) (FIG. 9) were used to make cationic liposomes in place of DC-Chol. Each cationic liposome system used was composed of 60 mol % of cationic lipid and 40 mol % of DOPE and prepared as described in Example 4. The following different LMD complex systems were prepared and compared: LMD(DC-Chol), LMD(B198), LMD(CJE52), and LMD(B232). All LMD systems were prepared with cationic liposomes (total lipid 20 μmol) and 0.6 mg of Mu1 peptide per 1.0 mg of DNA (pCMVβ), as described above.
Liposome:DNA (LD) complex mixtures (lipoplexes) were prepared for control experiments with a Liposome:DNA ratio of 3:1 (w/w), the optimal composition for transfection of ND7 cells.
Transfection in ND7 cells; ND7 cells were seeded in NGM (with 10% serum) at a density of approximately 4×10^4 cells per well, in a 24-well culture plate. After 24 h, cells were washed by brief exposure to NGM (serum free) and then treated with solutions containing LMD or LD complexes, prediluted with NGM (serum free) (final DNA concentration 2.5 μg/ml in all cases), for 1 h. Cells were then washed again and incubated for a further 48 h prior to processing for histochemical staining with X-gal. The number of cells stained blue were counted under an inverted microscope.

[2] = charge ratios worked out from the sequence; format: physicochemical
From the text: Mu1 is a polycationic peptide comprised of 19 amino acids associated with the core complex of Adenovirus (Table 1) ^27, 32. We compared the DNA binding capacity of Mu1 with the mouse polyomavirus major capsid protein Vp1 by interaction with plasmid DNA in a gel retardation assay. Vp1 is a 19 amino acid peptide that contains a nuclear localization signal ^26 and contains fewer positively charged amino acids than Mu1. It was therefore predicted to have a lower DNA binding capacity.
The success of non-viral gene delivery vehicles as viable alternatives to virus vector-based systems is dependent on the development of complexes with higher and longer lasting transfection efficiencies. Since the initial identification of cationic liposomes as vehicles for the transfer of genetic material into cells there has been a large push to develop better cationic liposome formulations ^5, 7. Most attempts at improving cationic liposomes have been based on structural modifications to the molecule itself ^30. Novel formulations have been developed which have improved transfection efficiencies ^30. However, particular cell types behave differently in regards to cationic liposomal transfection. For example, we found the polypeptide Mu1 better at enhancing cationic liposome mediated transfection than Vp1. This was probably due to Mu1's greater charge ratio. While both peptides are approximately the same molecular weight, the overall charge ratio of Mu1 was more than twice that of Vp1 (Table 1). […] While a small shift in pDNA mobility was detected when 0.25 μg Mu1 was complexed to 1 μg pCMVβ, almost all of the plasmid was retained near the loading well following addition of 0.5 μg Mu1 (FIG. 1). A 0.5/1.0 (w/w) ratio of Mu1 to pCMVβ corresponds to a 1000/1 molar ratio. Each molecule of Mu1 contains 12 residues that could potentially carry a positive charge. The theoretical charge ratio of Mu1 to pCMVβ would then be 1.6 (12000 Mu1 cations to 7500 pCMVβ anions).

plasmid DNA (pCMVβ) = experiment: gel retardation assay (DNA binding analysis)
Method: One microgram of pCMVβ was incubated with 0 μg (lane 2), 5 μg (lane 3), 10 μg (lane 4), 15 μg (lane 5), 20 μg (lane 6), 25 μg (lane 7) and 30 μg (lane 8) of BSA for 10 minutes at room temperature in 1× HBS. Samples were then analyzed on a 1% agarose gel for altered mobility.
When ratios of 0.5 (w/w) or greater were used, however, migration of both forms of pDNA was severely retarded.
C). The Polyomavirus protein Vp1 was much less efficient at preventing pDNA migration. pCMVβ (1 μg) was incubated with 2 μg (lane 2), 4 μg (lane 3), 6 μg (lane 4), 8 μg (lane 5), 16 μg (lane 6), 32 μg (lane 7) and 0 μg (lane 8) Vp1. Only ratios of 6 or higher (protein: pDNA, w/w) caused significant retardation of supercoiled pDNA (lane 6, lower band). Also, not until a ratio of 32 (w/w) was used was there any effect on relaxed pDNA (lane 7, upper band). In all gels lane 1 corresponds to 1 Kb DNA marker (BRL).
The purified peptides were reconstituted in sterile distilled H2O at 3 mg/mL. Peptide and pDNA were complexed in 20 μL HEPES buffered saline (137 mM NaCl, 5 mM KCl, 0.75 mM Na2HPO4, 19 mM HEPES, pH 7.4) for 20 minutes at room temperature. Peptide: pDNA complexes were subsequently analyzed by agarose gel electrophoresis (1%). Control incubations for general macromolecular pDNA interactions were performed with varying amounts of molecular biology grade purified bovine serum albumin (Sigma).
Varying amounts of purified peptide were incubated at room temperature in HBS for approximately 10 minutes and then analyzed by agarose gel electrophoresis. Without the addition of peptide, supercoiled and relaxed circular plasmid DNA (pDNA) migrated in the expected manner (FIG. 1, lane 8).

ND7 cells [3] = experiment: β-galactosidase reporter gene assay, transfection of undifferentiated ND7 cells; format: cell-based, rat/mouse; details: peptide with cationic liposome, pCMVβ:liposome 1:3 w/w
Method: ND7 cells were seeded at a density of 5 ×10^4 cells/well in 24 well culture dishes 24 hrs prior to transfection. Immediately prior to transfection, cells were washed in serum-free media. Complexes were formed by incubating pCMVβ with Mu1 prior to the addition of the cationic liposome DC-Chol/DOPE. In each case 1 μg pCMVβ was complexed with 0.6, 6, 12, and 21 μg Mu1 peptide. Each of these combinations was then complexed with 3, 4 and 6 μg DC-Chol/DOPE. ND7 cells were exposed to transfection complexes for 2 hours then maintained at 37° C., 5% CO2 for another 24 hrs before being harvested and processed for β-galactosidase enzyme assay. Numbers represent means±SD, n=3.
pCMVβ plasmid DNA was complexed to various amounts of polycationic peptide and then mixed with cationic liposome at a ratio of 1:3 (pCMVβ:liposome; w/w). After being washed briefly in serum free media, ND7 cells were exposed to the […] complexes for two hours and then returned to serum containing media Twenty-four hours later the cells were harvested and processed for β-galactosidase enzyme assay. Each condition was performed in triplicate and each experiment replicated three times. Numbers represent means±SD.
ND7s are a well-characterized cell line derived from the fusion of a neuroblastoma N18Tg2) with neonatal rat sensory neurons ^28. The cell line was maintained in normal growth media (NGM) (Leibovitz's L-15 media (BRL) enriched with 10% Fetal bovine serum (BRL), 4 g/L glucose, 4 g/L sodium bicarbonate (BRL), 100 IU/mL penicillin/streptomycin (BRL)) at 37° C. and 5% CO2. The cells were plated onto 24 well plates (Costar) at a density that produced 70% confluence after 24 hours.
Since initial experiments determined that the presence of fetal bovine serum inhibited transfection of ND7 cells serum-free differentiation media was used for all transfections. Various amounts of DNA and liposome were placed in the bottom of a 7 mL sterile Bijou container (Bibby Sterilin Ltd., Staffordshire, U.K.), but not in contact with each other.
DNA and liposomes were combined by the addition of 400 μL serum-free differentiation media and gentle shaking. The DNA: liposome mixture was incubated at room temperature for 20 to 30 minutes before being applied to the cells. The DNA/liposome mixture was then applied to the cells and incubated at 37° C., 5% CO2 for 2 hours after which this media was replaced with complete media Twenty four to 48 hours later the cells were fixed and processed for X-gal histochemistry as described ^31 or harvested for β-galactosidase enzyme assays (Promega Corp.).
Transfection complexes including the test peptides were generated in the following manner. Various amounts of peptide was placed in the bottom of sterile polystyrene containers alongside, but not in contact with 1 μg·pCMVβ and mixed by adding 400 μl serum free NGM media The complexes were incubated at room temperature for 10 minutes after which DC-Chol/DOPE was added. The pDNA/peptide/liposome complex was further incubated at room temperature for 20 minutes and then administered to cells as above.
We examined the ability of Mu1 and Vp1 to enhance the transfection of a neuronal cell line by cationic liposomes using a β-Galactosidase reporter gene assay. ND7 cells were transfected with pCMVβ complexed to varying amounts of peptide and DC-Chol/DOPE. We have previously shown that the cationic liposome DC-Chol/DOPE is capable of efficiently transfecting the neuronally derived ND7 cell line ^31. […] Temporally, maximal levels of transgene expression are obtained between 48-60 hours post transfection. Therefore, in order to maximize the chance of detecting improvements in transfection we performed all our assays within 12-20 hours of transfection at a time when levels of reporter gene expression were lower. Previously we found a pDNA: liposome ratio of 1:3 (w/w) optimal for transfections in ND7 cells ^31. […]

HeLa cells = experiment: β-galactosidase assay, alternative cationic peptides in HeLa cells; format: cell-based, human; details: DC-Chol:DOPE liposome:peptide:DNA 12:0.6:1, 30 min, DNA 1.0 μg/ml
Method: In order to examine the effects of various alternative cationic peptides on transfection activities, a series of liposome:cationic peptide:DNA complexes were prepared and their relative transfection abilities analysed in vitro. The peptides used were poly-lysine hydrochloride (average molecular weight 3970, Sigma), poly arginine hydrochloride (average molecular weight 11800, Sigma) a peptide derived from protein V, pV (p5, sequence shown below), a peptide analogue of Mu1 (V, sequence shown below) and Mu1 peptide itself. The p5 peptide and V peptide were synthesized using the same solid-phase peptide synthesis methodology as was used to prepare Mu1 peptide.
Each peptide was combined with cationic liposome (DC-Chol:DOPE 3:2 m/m) and DNA (pCMVβ) in the liposome:peptide:DNA ratio of 12:0.6:1 (w/w/w) as described in Example 4. The transfection activities were examined using HeLa cells (human epithelial cells). The cells were seeded at an approximate density of 5×10^4 per well in a 24-well culture plate in DMEM supplemented with 10% FCS and grown for 24 h in the presence of 5% CO2 at 37° C. Cells were washed by brief exposure to DMEM and then treated with solutions containing LMD or LD complexes, prediluted with OPTIMEM (Gibco) (final DNA concentration 1.0 μg/ml in all cases), for 30 min. Cells were then washed again and incubated for a further 48 h in DMEM supplemented with 10% FCS prior to harvesting. The level of β-galactosidase enzyme activity was determined with a standard assay kit (chemiluminescent, Roche).

CC(C)CCCC(C)C1CCC2C3CC=C4CC(OC(=O)NCCNCCCNCCN)CCC4(C)C3CCC12C (stereo not drawn) [B198]
rank order in transfection efficiency, corresponding LD systems (ND7 cells [1]): B198>DC-Chol>B232

CC(C)CCC[C@@H](C)[C@H]1CC[C@H]2[C@@H]3CC=C4C[C@@H](OC(=O)NCCN(C)C)CC[C@]4(C)[C@H]3CC[C@]12C [DC-Chol, 3β[N-(N′,N′-dimethylaminoethane)carbamoyl] cholesterol, reference compound]
rank order in transfection efficiency, corresponding LD systems (ND7 cells [1]): B198>DC-Chol>B232

NH2—Met—Ala—Pro—Lys—Arg—Lys—Ser—Gly—Val—Ser—Lys—Cys—Glu—Thr—Lys—Cys—Thr—Pro—Pro—OH (H-MAPKRKSGVSKCETKCTPP-OH; cysteine pairing not given here) [Vp1, 19 amino acid peptide of mouse polyomavirus major capsid protein Vp1, contains a nuclear localization signal, reference compound]
Charge/AA ratio [2]: 0.26 | ratio protein:pDNA at which there was first any effect on relaxed pDNA (plasmid DNA (pCMVβ); 1 μg pCMVβ, 1% agarose gel): 32 w/w | ratio protein:pDNA causing significant retardation of supercoiled pDNA (plasmid DNA (pCMVβ); 1 μg pCMVβ, 1% agarose gel): ≥ 6 w/w | effect on electrophoretic mobility of plasmid DNA (plasmid DNA (pCMVβ); pDNA:protein ratios up to 1:8 (w/w)): no effect on the electrophoretic mobility | improvement on transfection efficiency (ND7 cells [3]): no improvement on transfection efficiency

RPRRRATTRRRTTTGTRRRRRRR [p5, peptide derived from protein V, pV]
transfection activity compared to poly lysine and poly arginine complexes (HeLa cells): excellent transfection activity

VRRVHHRRRRVSHRRVRGG [peptide analogue of Mu1]
transfection activity compared to poly lysine and poly arginine complexes (HeLa cells): excellent transfection activity
